In a melting point compilation (Tetko et al.; mined from patent text by program, amines drawn as free bases though some values may be those of a salt):

| melting point [°C] | Structure (SMILES) |
| --- | --- |
| 127 to 131 | CCCCCCCn1c(C)c(CC(=O)O)c2cc(OCc3ccc4ccccc4n3)ccc21 |
| 132 to 136 | CCOC(=O)Cn1cccc1-c1nc(-c2ccc(OC)cc2)c(-c2ccc(OC)cc2)s1 |
| 185 to 187 | Cc1nc(N2CCN(Cc3csc4ccc(Cl)cc34)C2=O)sc1C(=O)NCc1cccnc1 |
| 161 | COc1cc(C)c(C(=O)c2c(Cl)cccc2Cl)c(O)c1OC |
| 177 to 178 | Cc1ccc(S(=O)(=O)N(c2ccc(Cl)cc2C(N)=O)C(C)C)cc1 |
| 53.5 | CCCCN(CCCC)CCCOc1ccc(S(=O)(=O)c2c(-c3ccccc3)noc2C(C)C)cc1 |
| 123 to 125 | COCCNC(=O)c1ccc(C(=O)N2CCN(c3ncccc3NCC(C)C)CC2)nc1 |
| 134 to 135 | CS(=O)(=O)c1ccc(C2=C(c3ccc(F)cc3)CC(CF)(CF)C2)cc1 |
| 182 to 184 | CCOC(=O)C1=C(C)NC(C)=C(C(=O)OCC)C1c1ccccc1/C=C/C(=O)OC1CCCC1 |
| 127 to 130 | COc1ccc(NCC(=O)N2CCC(Oc3ccc(Cl)cc3)CC2)cc1 |
| 96 to 97 | CCOC(=O)CC(=O)Nc1ccc(NC(=O)CC(=O)OCC)c([N+](=O)[O-])c1 |
| 159 to 160 | Cc1nn(C)c2c1c1oc(=O)c(Sc3ccccc3)c(O)c1c(=O)n2Cc1ccc(F)cc1 |
| 137 to 141 | CCOC(=O)C(C)c1ccc(O)c(NC(C)=O)c1 (stereo unspecified) |
| 139 to 140 | CCOCn1c(Oc2cc(C)cc(C)c2)c(CC)c(=O)[nH]c1=O |
| 144 to 146 | CCOCc1nc2c(N)nc3ccccc3c2n1CCOCc1ccccc1 |
| 70 to 76 | CCn1ncc(C(=O)c2ccc(S(C)(=O)=O)c(CO)c2Cl)c1O |
| 255 to 257 | CCOC(=O)Cc1c[nH]c2nc(Nc3ccccc3)nn2c1=O |
| > 250 | Cc1ccc(-c2nc3cccnc3n2CC(N)=O)s1 |
| 63.5 to 66 | CCCc1ccccc1OCCCOc1cccc(OC(=CC(=O)OC)C(=O)OC)c1CC |

| melting point [°C] | Structure (SMILES) |
| --- | --- |
| 253 to 255 | O=C1NC(=O)c2c1c(-c1ccccc1Cl)cc1c2c2cc(O)c(OCCCN3CCOCC3)cc2n1CCO |
| 188 to 190 | COC(=O)c1cn2c(n1)COc1c(OC)cccc1-2 |
| 152 to 154 | CC(Oc1ccc(Oc2ncc(Cl)cc2N)cc1)C(=O)O (stereo unspecified) |
| 67 to 71 | CCCCOc1cccc(CCNC(=O)C=CC2CCCCC2)c1 |
| 141 to 148 | Cc1nnnn1-c1ccccc1S(N)(=O)=O |
| 95 to 96 | CCCN1N=C(c2ccc(OC)c(OC)c2)[C@@H]2CCCC[C@@H]2C1=O (relative stereo) |
| 210 to 212 | Nc1nc2ccccc2c2c1ncn2COCCO |
| 207 to 208 | CSc1cccc(COCCCO)c1NC(=O)CC1c2ccccc2Oc2ccccc21 |
| 53 to 55 | Cc1cc2c(c(C)c1N)C(c1ccc(C(C)C)cc1)CO2 (stereo unspecified) |
| 101 to 102 | COc1ccc(-c2c(Cl)c(CNC(=O)Cn3cncn3)nc3sc4c(c23)CCN(Cc2ccccc2)C4)cc1OC |
| 53 to 55 | CCCCC12CCC3=C(CCc4cc(OC)ccc43)C1=CCC2=O (stereo unspecified) |
| 144 to 147 | O=[N+]([O-])C(Sc1ccccc1)=C1NCCCS1 |
| 263 | CCCC1=C(C#N)C(c2cccc3ccccc23)c2c[nH]nc2N1 (stereo unspecified) |
| 106 | CCN(CC)C(=O)c1cc(-c2cccc([N+](=O)[O-])c2)c2sccc2c1 |
| 206 to 209 | CC1CCCCC1NC(=O)[C@@H](C)NC(=O)[C@@H](N)CC(=O)O (stereo partly specified) |
| 173 to 177 | COC1=NC(=O)N(C2CCCCC2)S(=O)(=O)N1 |
| 110 | CCn1c(C(C)C)cc(-c2ccc(F)cc2)c1-c1ccccc1 |
| 55 to 57 | CN(C)CC(O)C(c1ccccc1)c1ccc(F)cc1 (stereo unspecified) |
| 237 to 238 | CCc1cn(C2CCC(CNC(=O)Cc3c(Cl)cccc3Cl)O2)c(=O)[nH]c1=O (stereo unspecified) |

| melting point [°C] | Structure (SMILES) |
| --- | --- |
| 172 to 173 | CC(C)(C)OC(=O)N1CCC(n2c(=O)n(CC(F)(F)F)c3cc(F)ccc32)CC1 |
| 150 to 151 | COc1cc(Nc2nccc(-c3ccc4c(c3)CCCC4)n2)cc(OC)c1OC |
| 268 to 269 | COc1cccc(C=C2SC(=S)NC2=O)c1OC |
| 228 to 230 | O=C(O)Cn1ccn(C2CCc3ccccc3C2)c1=S (stereo unspecified) |
| 125 to 128 | C[C@@H]1OCCN(c2cc(N3CCOCC3)nc(-n3c(CO)nc4ccccc43)n2)[C@@H]1C (relative stereo) |
| 109 | c1ccc([C@H]2CC[C@@H](Oc3ncnc4c3CCCC4)CC2)cc1 |
| 240 to 246 | CCN(CC)c1ccc(-c2ccc3c(c2)C=C(C(=O)Nc2ccc(CN(C)C4CCOCC4)cc2)CCS3(=O)=O)cc1 |
| 94 to 96 | NCc1ccc(C(=O)CCCN2CCC(c3ccc(Cl)cc3)CC2)cc1 |
| 130 | CCCC(=O)N1CCc2nc3ccccc3c(C)c2CC1 |
| 156 to 157 | CC(=O)c1cccc(C(=O)N2CCN(C(=O)c3cc(C(F)(F)F)cc(C(F)(F)F)c3)[C@H](Cc3ccc(C)c(C)c3)C2)c1 |
| 150 to 152 | CC(C)NC(=O)N1CC(Oc2cccc(C(F)(F)F)c2)C1 |
| 230 to 232 | CC(C)(Cn1c(CO)nc2c(N)nc3cccnc3c21)NC(=O)C1CCCCC1 |
| 92 to 95 | O=C(C=Cc1ccc(Cl)cc1)C(CC=Cc1ccccc1)c1ccccc1 (stereo unspecified) |
| 188 to 189 | COc1ccc(-c2ccc(=O)[nH]n2)cc1OC1CC2CCC1C2 (stereo unspecified) |
| > 220 | COc1ccc(-c2ccc3c(c2)c2cc(Cl)cnc2n3S(=O)(=O)c2ccccc2)cc1 |
| 73 | CNc1ccc(CCc2cc(OC)ccc2OC)cc1C(=O)OC |
| 184 to 186 | CN(C)C(=O)c1c(-c2ccc(C(F)(F)F)cc2)ccc2ccccc12 |
| 97 to 98 | CC(=O)OCC1OC(n2cc(C)c(=O)[nH]c2=O)CC1F (stereo unspecified) |
| 168 to 169 | COC(=O)C1=C(S(=O)(=O)NC(=O)Nc2nc(OC)nc(OC)n2)CCC1 |

The next lines start with the compound.

| Structure (SMILES) | melting point [°C] |
| --- | --- |
| Cn1nc(-c2c(Cl)cncc2Cl)nc1Cc1ccncc1 | 130 to 132 |
| ON=C1CCn2c(-c3ccc(Br)cc3)nc3c(Cl)ccc1c32 | > 250 |
| CC(=O)Oc1ccc(Cl)cc1C(=O)Cl | 35 to 38 |
| O=C(O)COc1cccc(CCc2cc(-c3ccccc3)n(-c3ccccc3)n2)c1 | 125 to 127 |
| CSc1cc(C)nc(SC)c1NC(=O)CCCCCCCSc1nc2cccc(C(F)(F)F)c2o1 | 115 to 116 |
| CNC(=O)Oc1ccc2[nH]cc(CCCN3CCN(c4ncncc4OC)CC3)c2c1 | 120 to 122 |
| Nc1nc2c(ncn2OCC(O)CCP(=O)(O)O)c(=O)[nH]1 (stereo unspecified) | > 315 |
| Cc1cc(-c2ccc(N(c3ccccc3)c3ccccc3)c(C)c2)ccc1N(c1ccccc1)c1ccccc1 | 175 to 178 |
| CCCC(NS(=O)(=O)c1ccccc1)P(=O)(Oc1ccccc1)Oc1ccccc1 (stereo unspecified) | 173 to 175 |
| CN(C1CN(C(=O)Nc2ccc(C(F)(F)F)cc2)N=C1c1ccc(Cl)cc1)S(C)(=O)=O (stereo unspecified) | 105 to 112 |
| C=CCOc1ccc(C#N)cc1 | 41.6 |
| Cc1cc(C2=NOC(c3cc(Cl)cc(Cl)c3)(C(F)(F)F)C2)ccc1C(=O)Nc1ccc(Cl)cn1 (stereo unspecified) | 129 to 132 |
| O=[N+]([O-])c1ccc(OCC(F)(F)F)c(OCC(F)(F)F)c1 | 63 to 65 |
| Nc1cccc(S(=O)(=O)NCC(F)(F)F)c1 | 131 |
| CCOc1ccc(N(C)C=C(C#N)C#N)cc1 | 147 to 148 |
| O=C1c2c(Cl)cccc2-n2cnc(-c3noc(C4CC4)n3)c2[C@@H]2CCCN12 | 236 to 237 |
| Cc1cc(-c2c(-c3ccc(S(N)(=O)=O)cc3)cnn(-c3ccc(F)cc3)c2=O)ccc1F | 202 to 204 |
| COc1ccc(-c2cc(=Nc3c(C)cc(C)cc3C)n(C)c(=O)n2C)cc1S(C)=O (stereo unspecified) | 125 to 135 |
| CC(C)(C)Nc1nc(N)nc2c1ncn2C1C=CC(CO)C1 (stereo unspecified) | 161 to 163 |
| NC(=O)N1CC(Oc2ccc(C(F)(F)F)cc2Cl)C1 | 156 to 159 |
| CN1CCN(c2ccnc3c(NC(=O)c4c(Cl)cccc4Cl)cc(Cl)cc23)C1=O | > 250 |
| COc1ccc(CCNC(=S)Cc2nnnn2C)cc1OC | 90 to 92 |

| Structure (SMILES) | melting point [°C] |
| --- | --- |
| CCn1ncc2c3onc(-c4cccc(C)c4)c3cnc21 | 122 to 123 |
| CC(C)=Cn1ncc(OCc2ccc(I)nc2)c(Cl)c1=O | 141 to 142 |
| CNS(=O)(=O)c1cc2c(c(C(=O)OC)c1)OCCO2 | 159 to 160 |
| O=C(O)CNC(=O)CN1CCCC1=O | 149 to 150 |
| CC(c1cccs1)N(O)C(N)=O (stereo unspecified) | 130 |
| CC(C)(C)c1cc(=O)n(-c2c(Cl)cc(C(F)(F)F)cc2Cl)[nH]1 | 175 |
| N#CC1CCCn2cccc21 (stereo unspecified) | 47 to 49 |
| Cc1cc(=O)n(C)c2nc(-c3ccncc3)nn12 | 195 to 197 |
| CCCc1nc(C(=O)C(C)C)c(C#N)n1Cc1ccc(-c2ccccc2-c2nnnn2C(c2ccccc2)(c2ccccc2)c2ccccc2)cc1 | 133 to 134 |
| CCc1ccc(CC2N=C(c3ccc(F)cc3)c3cc(Cl)ccc3NC2=O)cc1CC (stereo unspecified) | 88 to 90 |
| O=C(O)CCCCCCCCCCCCCCCCCCCCC(=O)ON1C(=O)CCC1=O | 122 to 124 |
| O=C1OC(=O)C(F)=C1F | 170 to 173 |
| CC(C)Cc1ccc(C(=O)O)cc1C#N | 118 |
| CSc1nc(Br)cc(Oc2cccc(C(F)(F)F)c2)n1 | 70 to 71 |
| CC(Oc1cc(C(F)(F)F)cc(C(F)(F)F)c1)C(=O)O (stereo unspecified) | 51 to 53 |
| CS(=O)(=O)c1ccc(-c2cccn2-c2ccc(F)c(F)c2)cc1 | 137 to 139 |
| COc1cc2c(-c3cc4cccnc4[nH]3)cn(C)c2cc1O | 250 |
| CC(=O)OCC=C(C)C=CC=C(C)C=O | 71 to 72 |
| O=C(O)CCCc1nc2c(F)c(F)cc(F)c2s1 | 113 to 114 |
| COCC(O)c1cccc(S(N)(=O)=O)c1 (stereo unspecified) | 109 |
| CCOP(=O)(COCCOn1cnc2c(N)nc(N)nc21)OCC | 139 to 141 |
| CCCCCCCCS(=O)c1ccc(CC(N)(CO)CO)cc1 (stereo unspecified) | 80 to 82 |
